The target of this assay is T1, angiotensin II type 1 receptor (Oryctolagus cuniculus, UniProt P34976).
T1 construct: By using a specimen of isolated rabbit blood vessels; from tissue; host or cells: rabbit thoracic aorta ring (New Zealand White, male)
T1 sequence (P34976 1-359): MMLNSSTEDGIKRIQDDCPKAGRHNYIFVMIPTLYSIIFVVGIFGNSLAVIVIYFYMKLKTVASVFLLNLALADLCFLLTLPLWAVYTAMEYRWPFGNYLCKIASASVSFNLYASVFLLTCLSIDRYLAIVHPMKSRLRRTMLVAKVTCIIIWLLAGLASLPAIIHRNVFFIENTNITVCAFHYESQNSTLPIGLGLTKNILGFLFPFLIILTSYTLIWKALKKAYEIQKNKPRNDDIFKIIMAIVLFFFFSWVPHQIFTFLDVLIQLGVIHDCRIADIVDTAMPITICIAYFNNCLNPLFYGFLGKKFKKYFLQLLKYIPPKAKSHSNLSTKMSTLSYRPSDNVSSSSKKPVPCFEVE
The experiment in a line: Angiotensin II antagonistic activity in isolated rabbit blood vessels. Conditions: angiotensin II (10 nM)-induced contraction of rabbit thoracic aorta ring. As to the method: By using a specimen of isolated rabbit blood vessels, antagonistic activity of the compounds of the invention against angiotensin II type 1 receptor was estimated from a dose-response curve of angiotensin II-induced blood vessel contraction.
During the measurement, the inside temperature of the magnus bath was maintained at 37° C. and the bath was continuously ventilated with a sufficient amount of mixed gas (95% O2 and 5% CO2). The angiotensin II-induced contraction was converted into a relative value (%) that is based on the angiotensin II (10 nM)-induced contraction in the absence of the compounds of each example. From the concentration-response curve obtained therefrom, 50% inhibition concentration (IC50 value) was calculated by using SAS Preclinical Package Ver5.0 (trade name, manufactured by SAS institute Japan Co., Tokyo, Japan), which is a statistical analysis program.
In the case of `CCCCc1nc(C)n(-c2ccccn2)c(=O)c1Cc1ccc(-c2ccccc2-c2nnn[nH]2)cc1` [Example 1, 5-{[2′-(1H-tetrazol-5-yl)biphenyl-4-yl]methyl}-6-butyl-2-methyl-3-(pyridin-2-yl)pyrimidin-4(3H)-one], the half-inhibitory concentration (IC50) worked out at 2.1 nM. In other words, the single-digit nanomolar range.
To `CCCCc1nc(C)n(-c2ncccc2C(F)(F)F)c(=O)c1Cc1ccc(-c2ccccc2-c2nnn[nH]2)cc1` [Example 9, 5-{[2′-(1H-tetrazol-5-yl)biphenyl-4-yl]methyl}-6-butyl-2-methyl-3-[3-(trifluoromethyl)pyridin-2-yl]pyrimidin-4(3H)-one] belongs 14 nM; to `CCCCc1nc(C)n(-c2cccc(C(F)(F)F)n2)c(=O)c1Cc1ccc(-c2ccccc2-c2nnn[nH]2)cc1` [Example 12, 5-{[2′-(1H-tetrazol-5-yl)biphenyl-4-yl]methyl}-6-butyl-2-methyl-3-[6-(trifluoromethyl)pyridin-2-yl]pyrimidin-4(3H)-one], 230 nM.
To `CCCCc1nc(C)n(-c2ccc([N+](=O)[O-])cn2)c(=O)c1Cc1ccc(-c2ccccc2-c2nnn[nH]2)cc1` [Example 14, 5-{[2′-(1H-tetrazol-5-yl)biphenyl-4-yl]methyl}-6-butyl-2-methyl-3-(5-nitropyridin-2-yl)pyrimidin-4 (3H)-one] belongs 546 nM; to `CCCCc1nc(C)n(-c2ncccn2)c(=O)c1Cc1ccc(-c2ccccc2-c2nnn[nH]2)cc1` [Example 17, 5-{[2′-(1H-tetrazol-5-yl)biphenyl-4-yl]methyl}-6-butyl-2-methyl-3-(pyrimidin-2-yl)pyrimidin-4 (3H)-one], 9.2 nM; to `CCCCc1nc(C)n(-c2ncc(OC)cn2)c(=O)c1Cc1ccc(-c2ccccc2-c2nnn[nH]2)cc1` [Example 18, 5-{[2′-(1H-tetrazol-5-yl)biphenyl-4-yl]methyl}-6-butyl-3-(5-methoxypyrimidin-2-yl)-2-methylpyrimidin-4 (3H)-one], 2.7 nM.
The value for `CCCCc1nc(C)n(-c2ncc(O)cn2)c(=O)c1Cc1ccc(-c2ccccc2-c2nnn[nH]2)cc1` [Example 20, 5-{[2′-(1H-tetrazol-5-yl)biphenyl-4-yl]methyl}-6-butyl-3-(5-hydroxypyrimidin-2-yl)-2-methylpyrimidin-4 (3H)-one] was 6.3 nM; that for `CCCCc1nc(C)n(-c2ncc(OCCCO)cn2)c(=O)c1Cc1ccc(-c2ccccc2-c2nnn[nH]2)cc1` [Example 25, 5-{[2′-(1H-tetrazol-5-yl)biphenyl-4-yl]methyl}-6-butyl-3-[5-(3-hydroxypropoxy)pyrimidin-2-yl]-2-methylpyrimidin-4 (3H)-one] was 24 nM; that for `CCCCc1nc(C)n(-c2ncc(OCCS(C)(=O)=O)cn2)c(=O)c1Cc1ccc(-c2ccccc2-c2nnn[nH]2)cc1` [Example 27, 5-{[2′-(1H-tetrazol-5-yl)biphenyl-4-yl]methyl}-6-butyl-2-methyl-3-{5-[2-(methylsulfonyl)ethoxy]pyrimidin-2-yl}pyrimidin-4 (3H)-one] was 5 nM.
Take `CCCCc1nc(C)n(-c2ncc(OC3CCC(=O)CC3)cn2)c(=O)c1Cc1ccc(-c2ccccc2-c2nnn[nH]2)cc1` [Example 29, 5-{[2′-(1H-tetrazol-5-yl)biphenyl-4-yl]methyl}-6-butyl-2-methyl-3-[5-(4-oxocyclohexyloxy)pyrimidin-2-yl]pyrimidin-4 (3H)-one]: 7.7 nM corresponded to half-maximal inhibition (IC50). Compared with the last molecule, the IC50 is about 1.5-fold higher.
On to `CCCCc1nc(C)n(-c2nc(Cl)cc(Cl)n2)c(=O)c1Cc1ccc(-c2ccccc2-c2nnn[nH]2)cc1` [Example 30, 5-{[2′-(1H-tetrazol-5-yl)biphenyl-4-yl]methyl}-6-butyl-3-(4,6-dichloropyrimidin-2-yl)-2-methylpyrimidin-4 (3H)-one], for which the IC50 worked out at 20 nM.
To `CCCCc1nc(C)n(-c2ncc(OCc3nc(-c4ccccc4)oc3C)cn2)c(=O)c1Cc1ccc(-c2ccccc2-c2nnn[nH]2)cc1` [Example 31] belongs 338 nM.
To `CCCCc1nc(C)n(-c2ncc(OCc3nc(-c4ccc(Br)o4)oc3C)cn2)c(=O)c1Cc1ccc(-c2ccccc2-c2nnn[nH]2)cc1` [Example 32, 5-{[2′-(1H-tetrazol-5-yl)biphenyl-4-yl]methyl}-3-{5-{[2-(5-bromofuran-2-yl)-5-methyloxazol-4-yl]methoxy}pyrimidin-2-yl}-6-butyl-2-methylpyrimidin-4 (3H)-one] belongs 428 nM; to `CCCCc1nc(C)n(-c2ncc(OCc3nc(-c4ccco4)oc3C)cn2)c(=O)c1Cc1ccc(-c2ccccc2-c2nnn[nH]2)cc1` [Example 33, 5-{[2′-(1H-tetrazol-5-yl)biphenyl-4-yl]methyl}-6-butyl-3-{5-{[2-(furan-2-yl)-5-methyloxazol-4-yl]methoxy}pyrimidin-2-yl}-2-methylpyrimidin-4 (3H)-one], 956 nM; to `CCCCc1nc(C)n(-c2ncc(OCc3nc(-c4ccc5ccccc5c4)oc3C)cn2)c(=O)c1Cc1ccc(-c2ccccc2-c2nnn[nH]2)cc1` [Example 34, 5-{[2′-(1H-tetrazol-5-yl)biphenyl-4-yl]methyl}-6-butyl-2-methyl-3-{5-{[5-methyl-2-(naphthalen-2-yl)oxazol-4-yl]methoxy}pyrimidin-2-yl}-pyrimidin-4 (3H)-one], 754 nM.
The value for `CCCCc1nc(C)n(-c2ncc(OCCc3nc(-c4ccccc4)oc3C)cn2)c(=O)c1Cc1ccc(-c2ccccc2-c2nnn[nH]2)cc1` [Example 35, 5-{[2′-(1H-tetrazol-5-yl)biphenyl-4-yl]methyl}-6-butyl-2-methyl-3-{5-[2-(5-methyl-2-phenyloxazol-4-yl)ethoxy]pyrimidin-2-yl}pyrimidin-4 (3H)-one] was 347 nM.
Regarding `CCCCc1nc(C)n(-c2ncc(OCC(=O)OCC)cn2)c(=O)c1Cc1ccc(-c2ccccc2-c2nnn[nH]2)cc1` [Example 37], the IC50 was found to be 25.2 nM.
The value for `CCCCc1nc(C)n(-c2ncc(OCC(=O)O)cn2)c(=O)c1Cc1ccc(-c2ccccc2-c2nnn[nH]2)cc1` [Example 38, 2-{2-{5-{[2′-(1H-tetrazol-5-yl)biphenyl-4-yl]methyl}-4-butyl-2-methyl-6-oxopyrimidin-1(6H)-yl}pyrimidin-5-yloxy}acetic acid] was 6.5 nM; that for `CCCCc1nc(C)n(-c2ncc(OCC(N)=O)cn2)c(=O)c1Cc1ccc(-c2ccccc2-c2nnn[nH]2)cc1` [Example 39, 2-{2-{5-{[2′-(1H-tetrazol-5-yl)biphenyl-4-yl]methyl}-4-butyl-2-methyl-6-oxopyrimidin-1(6H)-yl}pyrimidin-5-yloxy}acetamide] was 1 nM; that for `CCCCc1nc(C)n(-c2ncc(OCC(=O)NCC)cn2)c(=O)c1Cc1ccc(-c2ccccc2-c2nnn[nH]2)cc1` [Example 40, 2-{2-{5-{[2′-(1H-tetrazol-5-yl)biphenyl-4-yl]methyl}-4-butyl-2-methyl-6-oxopyrimidin-1(6H)-yl}pyrimidin-5-yloxy}-N-ethylacetamide] was 5.9 nM.
The value for `CCCCc1nc(C)n(-c2ncc(OCC(=O)N(CC)CC)cn2)c(=O)c1Cc1ccc(-c2ccccc2-c2nnn[nH]2)cc1` [Example 41, 2-{2-{5-{[2′-(1H-tetrazol-5-yl)biphenyl-4-yl]methyl}-4-butyl-2-methyl-6-oxopyrimidin-1(6H)-yl}pyrimidin-5-yloxy}-N,N-diethylacetamide] was 8.7 nM.
To `CCCCc1nc(C)n(-c2ncc(OC(Cc3ccccc3)C(=O)O)cn2)c(=O)c1Cc1ccc(-c2ccccc2-c2nnn[nH]2)cc1` (centres unmarked) [Example 43, 2-{2-{5-{[2′-(1H-tetrazol-5-yl)biphenyl-4-yl]methyl}-4-butyl-2-methyl-6-oxopyrimidin-1(6H)-yl}pyrimidin-5-yloxy}-3-phenylpropionic acid] belongs 5.5 nM; to `CCCCc1nc(C)n(-c2ncc(OC(C(N)=O)c3ccccc3)cn2)c(=O)c1Cc1ccc(-c2ccccc2-c2nnn[nH]2)cc1` (centres unmarked) [Example 44, 2-{2-{5-{[2′-(1H-tetrazol-5-yl)biphenyl-4-yl]methyl}-4-butyl-2-methyl-6-oxopyrimidin-1(6H)-yl}pyrimidin-5-yloxy}-2-phenylacetamide], 963 nM; to `CCCCc1nc(C)n(-c2ncc(OCCCC(=O)OCC)cn2)c(=O)c1Cc1ccc(-c2ccccc2-c2nnn[nH]2)cc1` [Example 45, ethyl 4-{2-{5-{[2′-(1H-tetrazol-5-yl)biphenyl-4-yl]methyl}-4-butyl-2-methyl-6-oxopyrimidin-1(6H)-yl}pyrimidin-5-yloxy}butanoate], 242 nM.
`CCCCc1nc(C)n(-c2ncc(OCCCC(=O)O)cn2)c(=O)c1Cc1ccc(-c2ccccc2-c2nnn[nH]2)cc1` [Example 46, 4-{2-{5-{[2′-(1H-tetrazol-5-yl)biphenyl-4-yl]methyl}-4-butyl-2-methyl-6-oxopyrimidin-1(6H)-yl}pyrimidin-5-yloxy}butanoic acid] gave an IC50 of 4.3 nM. This IC50 lies about 56-fold lower than the previous one.
`CCCCc1nc(C)n(-c2ncc(OCCCC(=O)NC)cn2)c(=O)c1Cc1ccc(-c2ccccc2-c2nnn[nH]2)cc1` [Example 48, 4-{2-{5-{[2′-(1H-tetrazol-5-yl)biphenyl-4-yl]methyl}-4-butyl-2-methyl-6-oxopyrimidin-1(6H)-yl}pyrimidin-5-yloxy}-N-methylbutanamide] yielded a half-maximal inhibitory concentration (IC50) of 9.9 nM.

A word on the IC50: it is the concentration that gives 50% inhibition. Low values mean greater potency, high ones weaker potency.

The values are drawn from US8664226B2, “Compound having 3-heteroarylpyrimidin-4-(3H)-one structure and pharmaceutical preparation containing same” (Kowa Company, Ltd., priority 2009, dated 2014).
